The record followed here is patent US20240246955A1, “TROPOMYOSIN RECEPTOR KINASE (TRK) DEGRADATION COMPOUNDS AND METHODS OF USE” (CULLGEN (SHANGHAI), INC., priority 2021, published 2024).

Structures are written as SMILES. A value given as a limit tells only on which side of the number the result lay.

Format in all cases: cell-based
For one assay, the target named is T1, human full length TRKC (Homo sapiens, UniProt Q16288).
T1 construct: lentivirus directing expression of human full length TRKB or TRKC; expressed in transfected cells; host or cells: NIH3T3 cells, lentiviral transduction, puromycin selection
In words: TRKC degradation in NIH3T3-TRKC cells (Western blot). The conditions noted are these: 0.1 nM to 1000 nM, 16 hours, Western blot (FIG. 4C). The protocol:
(§1) NIH3T3 cells were infected with lentivirus directing expression of human full length TRKB or TRKC. Cells were then selected using 1 ug/ml puromycin to establish NIH3T3-TRKB and NIH3T3-TRKC cell lines that stably expressed human TRKB or TRKC, respectively.
(§2) HEL cells expressing endogenous TRKA, and NIH3T3-TRKB and NIH3T3-TRKC cells prepared as described above were treated with heterobifunctional compound CPD-031 at 0.1 nM, 1 nM, 10 nM, 100 nM and 1000 nM for 16 hours.
(§3) Cultured cells were washed with cold PBS once and lysed in cold RIPA buffer supplemented with protease inhibitors and phosphatase inhibitors (Beyotime Biotechnology). The solutions were then incubated at 4° C. for 30 minutes with gentle agitation to fully lyse cells. Cell lysates were centrifuged at 13,000 rpm for 10 minutes at 4° C. and pellets were discarded. Total protein concentrations in the lysates were determined by BCA assays (Beyotime Biotechnology). Cell lysates were mixed with Laemmli loading buffer to 1× and heated at 99° C. for 5 min. Proteins were resolved on SDS-PAGE and visualized by chemiluminescence. Images were taken by a ChemiDoc MP Imaging system (Bio-Rad). Protein bands were quantitated using the software provided by Bio-Rad.
For orientation: In western blotting, separated proteins are transferred to a membrane and probed.

The next assay has as its target T2, wildtype TRKA protein (Homo sapiens, UniProt P04629).
T2 construct: HEL cells expressing endogenous TRKA; endogenous in cells; host or cells: HEL erythroleukemia cells
In words: Wildtype TRKA degradation in HEL cells (Western blot). Conditions: 0.1 nM to 1000 nM, 16 hours, Western blot (FIG. 4A). The procedure: HEL cells were treated with heterobifunctional compounds CPD-019 and CPD-002 at 10 nM or 100 nM for 16 hours.
as §2, §3

The target of a further assay is T3, human full length TRKB (Homo sapiens, UniProt Q16620).
T3 construct: lentivirus directing expression of human full length TRKB or TRKC; expressed in transfected cells; host or cells: NIH3T3 cells, lentiviral transduction, puromycin selection
In words: TRKB degradation in NIH3T3-TRKB cells (Western blot). Conditions: 0.1 nM to 1000 nM, 16 hours, Western blot (FIG. 4B). The procedure: as §1, §2, §3

The next assay concerns the target T4, TPM3-TRKA fusion protein (Homo sapiens, UniProt P04629).
T4 construct: TPM3 (N-terminal part of tropomyosin alpha-3, natural fusion partner); endogenous in cells; host or cells: KM12 colon cancer cells; the other entry of the earlier key: TPM3 (P06753, Tropomyosin alpha-3 chain)
In words: TPM3-TRKA degradation in KM12 cells (Western blot). The conditions noted are these: 16 hours, TRK protein, immunoblot; for inhibition at 0.01 µM: 10 nM; for inhibition at 0.1 µM: 100 nM. The method, boiled down:
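KM12 cells treated with compound at 10 nM or 100 nM for 16 h, lysed in RIPA, and TRK protein measured by immunoblot with TRK-specific antibody and chemiluminescence band quantitation. Percent degradation binned: −, none; +, <50%; ++, ≥50% but <80%; +++, ≥80%.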

For a further assay, the system named is KM12 cells. In words: KM12 cell viability assay (CellTiter-Glo). Conditions: Homo sapiens, 72 h; KM12 cells, 3 days, CellTiter-Glo. In a few lines:
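KM12 cells, 5000 per well, treated 3 days with 11-point 3-fold serial dilutions of heterobifunctional compounds. Viability by CellTiter-Glo luminescence, normalized to untreated cells; IC50 from least-squares nonlinear regression.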
On the technique in general: ATP-based viability assays read luminescence as a measure of living cells.

Assay [1] has as its system TRKA G595R mutated KM12 cells. In words: Cell viability assay in TRKA G595R mutated KM12 cells (CellTiter-Glo). The conditions noted are these: Homo sapiens, 72 h, 3 days. The procedure:
KM12, TRKA G595R mutated KM12, HEL, and other cells were cultured at 37° C. with 5% CO2 in DMEM or RPMI 1640 Medium supplemented with 10% fetal bovine serum. Cells were authenticated using the short tandem repeat (STR) assays. Mycoplasma test results were negative.
Cells were seeded at a density of 5000 cells per well in 96-well assay plates and treated with test compounds following a 11-point 3-fold serial dilution. Three days later, cell viability was determined using the CellTiter-Glo assay kit (Promega) according to the manufacturer's instructions. The dose-response curves were determined and IC50 values were calculated using the GraphPad Prism software following a nonlinear regression (least squares fit) method.
The activities of selected compounds on cell viability (IC50 values) and TMP3-TRKA degradation (percentage degradation at 10 nM) in KM12 cells or KM12-G595R mutated KM12 cells (KM12-G595R) are listed in Table 2.

T4 sequence (P04629 with tags, fused parts or gaps): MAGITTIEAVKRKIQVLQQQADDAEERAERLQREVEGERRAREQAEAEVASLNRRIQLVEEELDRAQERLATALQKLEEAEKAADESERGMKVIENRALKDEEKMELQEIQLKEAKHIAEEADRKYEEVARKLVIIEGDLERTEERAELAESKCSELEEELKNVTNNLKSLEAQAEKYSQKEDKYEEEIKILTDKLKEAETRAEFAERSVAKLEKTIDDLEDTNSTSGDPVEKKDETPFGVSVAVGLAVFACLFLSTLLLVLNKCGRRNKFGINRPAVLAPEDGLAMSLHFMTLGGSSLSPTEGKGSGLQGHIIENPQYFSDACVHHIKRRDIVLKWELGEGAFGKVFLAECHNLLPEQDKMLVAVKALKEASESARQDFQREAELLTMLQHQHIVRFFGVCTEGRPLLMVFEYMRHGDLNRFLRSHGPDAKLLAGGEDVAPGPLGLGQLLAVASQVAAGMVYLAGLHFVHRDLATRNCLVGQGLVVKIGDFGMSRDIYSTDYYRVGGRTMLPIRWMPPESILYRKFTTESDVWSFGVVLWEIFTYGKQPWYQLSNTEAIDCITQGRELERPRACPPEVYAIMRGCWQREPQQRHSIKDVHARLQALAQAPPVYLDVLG
T1 sequence (Q16288 32-839): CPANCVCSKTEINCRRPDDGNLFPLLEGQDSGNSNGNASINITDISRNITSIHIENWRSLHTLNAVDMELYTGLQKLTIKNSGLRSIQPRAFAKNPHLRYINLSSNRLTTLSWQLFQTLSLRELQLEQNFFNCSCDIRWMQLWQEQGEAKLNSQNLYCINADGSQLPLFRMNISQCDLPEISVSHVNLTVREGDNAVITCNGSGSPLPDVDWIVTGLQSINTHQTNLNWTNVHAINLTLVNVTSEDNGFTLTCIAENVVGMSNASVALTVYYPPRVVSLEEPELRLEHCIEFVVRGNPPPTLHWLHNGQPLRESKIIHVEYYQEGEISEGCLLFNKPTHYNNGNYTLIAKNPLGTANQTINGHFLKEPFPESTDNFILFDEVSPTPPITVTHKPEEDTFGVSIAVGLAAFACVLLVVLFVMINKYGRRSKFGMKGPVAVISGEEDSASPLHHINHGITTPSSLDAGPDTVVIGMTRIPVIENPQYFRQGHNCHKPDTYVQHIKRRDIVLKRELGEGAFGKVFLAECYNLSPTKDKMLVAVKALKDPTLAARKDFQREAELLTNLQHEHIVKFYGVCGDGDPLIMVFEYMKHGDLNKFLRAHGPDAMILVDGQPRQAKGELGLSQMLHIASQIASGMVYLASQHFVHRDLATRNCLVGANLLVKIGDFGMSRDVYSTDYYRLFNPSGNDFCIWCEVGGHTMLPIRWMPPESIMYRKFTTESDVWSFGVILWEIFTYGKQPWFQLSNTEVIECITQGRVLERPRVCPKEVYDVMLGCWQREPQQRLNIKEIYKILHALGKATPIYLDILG
T3 sequence (Q16620 32-822): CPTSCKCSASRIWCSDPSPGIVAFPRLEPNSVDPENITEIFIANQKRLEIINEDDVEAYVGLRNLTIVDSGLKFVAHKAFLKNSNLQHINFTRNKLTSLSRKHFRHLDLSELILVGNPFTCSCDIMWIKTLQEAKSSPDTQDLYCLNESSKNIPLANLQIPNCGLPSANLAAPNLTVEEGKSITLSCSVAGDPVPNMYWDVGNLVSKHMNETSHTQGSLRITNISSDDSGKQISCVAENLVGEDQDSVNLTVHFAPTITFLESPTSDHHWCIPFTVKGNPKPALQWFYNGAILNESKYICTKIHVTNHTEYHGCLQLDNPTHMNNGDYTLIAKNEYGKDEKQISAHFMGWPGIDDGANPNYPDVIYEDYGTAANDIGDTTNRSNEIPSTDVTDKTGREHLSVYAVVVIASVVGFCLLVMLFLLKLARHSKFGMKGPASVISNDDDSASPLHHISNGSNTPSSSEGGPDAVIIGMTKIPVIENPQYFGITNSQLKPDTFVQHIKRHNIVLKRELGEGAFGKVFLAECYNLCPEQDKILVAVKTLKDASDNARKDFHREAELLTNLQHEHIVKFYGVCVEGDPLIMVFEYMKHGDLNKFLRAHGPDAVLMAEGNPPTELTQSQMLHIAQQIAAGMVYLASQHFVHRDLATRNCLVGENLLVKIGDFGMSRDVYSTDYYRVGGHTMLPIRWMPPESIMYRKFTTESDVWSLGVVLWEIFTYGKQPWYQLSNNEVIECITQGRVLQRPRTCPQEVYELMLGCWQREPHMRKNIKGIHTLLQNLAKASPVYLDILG
T2 sequence (P04629 33-796): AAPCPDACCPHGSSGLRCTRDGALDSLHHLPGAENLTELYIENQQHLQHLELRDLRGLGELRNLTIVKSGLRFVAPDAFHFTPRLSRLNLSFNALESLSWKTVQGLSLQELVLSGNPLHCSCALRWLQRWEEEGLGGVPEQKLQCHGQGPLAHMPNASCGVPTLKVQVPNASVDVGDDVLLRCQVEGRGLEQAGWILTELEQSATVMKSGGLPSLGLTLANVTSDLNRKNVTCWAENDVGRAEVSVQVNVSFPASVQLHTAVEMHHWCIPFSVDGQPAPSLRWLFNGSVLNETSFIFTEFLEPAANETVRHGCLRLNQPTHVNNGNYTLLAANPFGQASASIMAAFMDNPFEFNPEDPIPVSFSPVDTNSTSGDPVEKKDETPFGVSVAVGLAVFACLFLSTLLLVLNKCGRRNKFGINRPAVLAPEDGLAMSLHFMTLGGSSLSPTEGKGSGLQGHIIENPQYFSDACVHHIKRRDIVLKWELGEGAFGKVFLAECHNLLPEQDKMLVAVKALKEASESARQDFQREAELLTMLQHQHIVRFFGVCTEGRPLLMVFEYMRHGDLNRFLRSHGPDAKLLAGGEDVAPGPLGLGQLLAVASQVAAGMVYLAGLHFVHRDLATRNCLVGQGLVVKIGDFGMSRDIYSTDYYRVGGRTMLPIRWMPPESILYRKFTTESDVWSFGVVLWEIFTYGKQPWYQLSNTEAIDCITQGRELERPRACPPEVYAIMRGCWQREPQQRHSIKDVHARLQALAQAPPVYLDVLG

As to `COCCN1C[C@@H](NC(=O)Nc2c(C)c(-c3cnc(N4CCN(CCNc5ccc6c(c5)C(=O)N(C5CCC(=O)NC5=O)C6=O)CC4)nc3)nn2-c2ccccc2)[C@H](c2cccc(F)c2)C1` (stereo partly drawn) [CPD-031, 1-(3-(2-(4-(2-((2-(2,6-dioxopiperidin-3-yl)-1,3-dioxoisoindolin-5-yl)amino)ethyl)piperazin-1-yl)pyrimidin-5-yl)-4-methyl-1-phenyl-1H-pyrazol-5-yl)-3-((3S,4R)-4-(3-fluorophenyl)-1-(2-methoxyethyl)pyrrolidin-3-yl)urea], the TRKC protein levels result on human full length TRKC is “minimal reduction”. Besides, the “wildtype TRKA protein levels in HEL cells” value on wildtype TRKA protein is reported as “significantly reduced”. Also, the TRKB protein levels entry on human full length TRKB was “minimal reduction”. On TPM3-TRKA fusion protein, the inhibition – broadly, the drop in the measured response relative to a control, in per cent – at 0.01 µM is greater than 80% and the inhibition at 0.1 µM was greater than 80%. Also, the IC50 – broadly, the concentration needed to halve the response being measured – in the assay on KM12 cells came to 2.04 nM. The compound also yielded an IC50 in assay [1] of 6.11 nM.

For the compound `COCCN1C[C@@H](NC(=O)Nc2c(C)c(-c3cnc(N4CCN(C(=O)CCc5cccc6c5C(=O)N(C5CCC(=O)NC5=O)C6=O)CC4)nc3)nn2-c2ccccc2)[C@H](c2cccc(F)c2)C1` (stereo partly drawn) [CPD-025, 1-(3-(2-(4-(3-(2-(2,6-dioxopiperidin-3-yl)-1,3-dioxoisoindolin-4-yl)propanoyl)piperazin-1-yl)pyrimidin-5-yl)-4-methyl-1-phenyl-1H-pyrazol-5-yl)-3-((3S,4R)-4-(3-fluorophenyl)-1-(2-methoxyethyl)pyrrolidin-3-yl)urea], the inhibition at 0.01 µM against TPM3-TRKA fusion protein is less than 50%. In addition, the inhibition at 0.1 µM on TPM3-TRKA fusion protein lay within 50 to 800%. Also, the results for the IC50 (in the assay on KM12 cells; in assay [1]) were 30 nM and 158 nM, respectively.
